From patent US20250282802A1, “P[…] AND METHODS” (priority 2020, published 2025)
Like-named read-outs stand apart in the source and are kept apart here.

How the values were obtained:
[1] = test system: Acinetobacter baumannii ATCC 19606; assay: Antibacterial bioassay (MIC), Acinetobacter baumannii; assay type: cell-based; settings: CLSI
Experimental: Antibacterial bioassays. Susceptibility testing for the ESKAPE pathogens and Salmonella enterica LT2 was performed using a Kirby-Bauer method as outlined by the Clinical and Laboratory Standards Institute (CLSI). For rich media bioassays, Mueller Hinton Broth 2 (MH-2, Sigma-Aldrich, 90922) was used for all strains except 1% BHI was supplemented for Enterococcus faecalis ATCC 19433. For minimal media bioassays, glucose-MOPS minimal medium was used. Briefly, overnight bacterial cultures were sub-cultured and inoculated into 5 mL top agar (0.7% agar) for final concentration of 5×10^5 CFU/mL. Then, 20 μL of a compound 2-fold dilution series (200, 100, 50, 25, 12.5, 6.25 μM in water) was spotted on 6 mm diameter blank paper discs (BD BBL™ 231039). Control discs received 20 μL of 50 mg/mL kanamycin. Plates were incubated at 35° C. for 20-24 hours. […] Sensitivity of the IPTG-inducible phosphonate uptake strain WM6242 to pantaphos was tested using a disk diffusion assay. Plates containing growth medium were overlayed with 5 mL of top agar (0.7% agar) inoculated with 100 μL (OD600=0.8) of the phosphonate-specific E. coli indicator strain (WM6242) with or without addition of 1 mM IPTG. WM6242 is engineered with an IPTG-inducible, non-specific phosphonate uptake system (phnCDE). […]

human cell lines = assay: Cytotoxicity profiling against a panel of human cell lines; assay type: cell-based; settings: human cell lines of Table 2, with the exception of ES-2; read-out: IC50 levels, range for each of the cell lines tested
Experimental: Cell culture cytotoxicity screening. The compounds were evaluated for their ability to kill cancer cell lines in culture, using HOS (osteosarcoma); ES-2 (ovarian cancer); HCT 116 (colon cancer); A549 (lung carcinoma); and A172 (glioma) cells. Human skin fibroblast cells (HFF-1) were also assessed. Cells were seeded (3000 cells well^−1 for ES-2, HCT 116, A549 and A172; 4000 cells well^−1 for HFF-1 and 2500 cells well^−1 for HOS) in a 96-well plate and allowed to attach overnight. Cells were treated with pantaphos in water. The concentrations of the tested compounds were 5 nM to 100 μM (1% water final; 100 μl well^−1). Raptinal (50 μM) was used as a dead control. On each plate, five technical replicates per compound were performed. 72 hours post-treatment, cell viability was assessed using the Alamar Blue method (http://www.bio-rad-antibodies.com/measuring-cytotoxicity-proliferation-spectrophotometry-fluorescence-alamarBlue.html). Alamar Blue solution (10 μl of 440 μM resazurin in sterile 1×PBS) was added to each well, and the plate was incubated for 3-4 hrs. Conversion of Alamar Blue was measured with a plate reader (SpectraMax M3; Molecular Devices) by fluorescence (excitation wavelength: 555 nm; emission wavelength: 585 nm; cutoff 570 nm; autogain). Percentage death was determined by normalizing to water-treated cells and Raptinal-treated cells. […]

onion bulbs = assay: Onion bioactivity assay (center rot); assay type: in vivo, Allium cepa (onion); settings: 30° C.
Experimental: Onion bioactivity assays. Yellow onions purchased from a local market were surface sterilized in a laminar flow biosafety hood as follows. First, the outermost layers with any damage or browning were removed and discarded, followed by soaking for 10 minutes in 10% bleach. The onions were then rinsed three times with sterile dH2O, followed by soaking in 70% EtOH for an additional 10 minutes, then rinsed four times with sterile dH2O. The onions were left in a biosafety laminar flow hood until water and ethanol were completely evaporated. For testing virulence of microbial strains, the onions were inoculated by stabbing with a previously sterilized wooden toothpick dipped into a bacterial cell suspension (1×10^3 CFU/mL in 1×PBS buffer). Chemical complementation studies were performed by addition of 100 μL of filter-sterilized sample into the hole created by the toothpick during inoculation. For testing bioactivity of crude and purified chemical samples in the absence of bacteria, holes were punched in sterilized onions using sterile toothpicks followed by addition of 100 μL of a filter-sterilized sample. Following inoculation and/or treatment with filter-sterilized compounds, the onions were placed in zip-lock plastic bags and incubated at 30° C. in the dark for the indicated number of days. […]

In the case of `O=C(O)/C=C(\C(=O)O)C(O)P(=O)(O)O` (centres unmarked) [pantaphos, 2-(hydroxy(phosphono)methyl)maleate], the MIC ([1]; ATCC19606, Mueller-Hinton 2 medium, read-out: MIC, Rich medium) is reported as over 200 µM, the MIC ([1]; ATCC19606, glucose-MOPS minimal medium, read-out: MIC, Minimal medium) is reported as over 200 µM and the IC50 (human cell lines) is reported as 6 to 37 µM. For the same compound, the “onion center rot on co-inoculation with the P. ananatis hvr deletion mutant (chemical complementation)” value (onion bulbs; co-inoculated with hvr mutant) was “resulted in onion rot” and the “onion rot lesions after injection in the absence of bacteria” value (onion bulbs; surface sterilized onion bulbs, 100 μL filter-sterilized sample, no bacteria) was “severe onion rot lesions”.
